Experimental data taken from ChEMBL document CHEMBL1926625, “Identification of benzoxazin-3-one derivatives as novel, potent, and selective nonsteroidal mineralocorticoid receptor antagonists” (J Med Chem, 2011).
pIC50: −log10 of the molar value.

How the values were obtained:
[1] = molecular target: T1, Mineralocorticoid receptor (Homo sapiens, UniProt P08235); assay: biochemical
T1 sequence (P08235 whole entry): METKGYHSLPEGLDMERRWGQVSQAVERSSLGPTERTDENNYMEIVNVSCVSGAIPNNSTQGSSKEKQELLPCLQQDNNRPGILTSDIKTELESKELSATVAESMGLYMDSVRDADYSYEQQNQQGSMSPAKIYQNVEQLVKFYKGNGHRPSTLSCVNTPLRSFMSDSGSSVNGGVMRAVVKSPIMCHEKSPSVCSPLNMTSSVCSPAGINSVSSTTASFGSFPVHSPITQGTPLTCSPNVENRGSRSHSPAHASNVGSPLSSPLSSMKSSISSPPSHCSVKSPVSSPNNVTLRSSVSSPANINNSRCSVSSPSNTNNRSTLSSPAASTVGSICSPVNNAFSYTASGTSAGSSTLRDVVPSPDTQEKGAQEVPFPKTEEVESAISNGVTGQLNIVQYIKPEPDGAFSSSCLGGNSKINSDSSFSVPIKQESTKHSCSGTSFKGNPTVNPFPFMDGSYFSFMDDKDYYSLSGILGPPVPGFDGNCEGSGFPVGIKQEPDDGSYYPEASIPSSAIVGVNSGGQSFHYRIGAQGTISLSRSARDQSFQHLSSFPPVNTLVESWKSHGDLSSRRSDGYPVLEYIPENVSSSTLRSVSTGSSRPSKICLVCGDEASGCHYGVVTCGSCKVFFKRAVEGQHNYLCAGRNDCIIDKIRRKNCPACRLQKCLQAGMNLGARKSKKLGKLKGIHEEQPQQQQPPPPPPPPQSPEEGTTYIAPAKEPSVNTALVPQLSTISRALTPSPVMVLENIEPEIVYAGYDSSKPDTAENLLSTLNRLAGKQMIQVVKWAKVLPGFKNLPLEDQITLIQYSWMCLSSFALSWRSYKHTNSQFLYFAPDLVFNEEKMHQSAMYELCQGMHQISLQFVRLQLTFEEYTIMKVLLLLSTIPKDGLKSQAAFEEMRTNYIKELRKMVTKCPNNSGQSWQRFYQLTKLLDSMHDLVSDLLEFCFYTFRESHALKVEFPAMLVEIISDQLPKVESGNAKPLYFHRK
Description: Displacement of [3H]aldosterone from cytosolic human MR expressed in HEK293 cells after 16 hrs by scintillation counting

Glucocorticoid receptor = molecular target: T2, Glucocorticoid receptor (Homo sapiens, UniProt P04150); assay: Displacement of [3H]dexomethasone from GR
T2 sequence (P04150 whole entry): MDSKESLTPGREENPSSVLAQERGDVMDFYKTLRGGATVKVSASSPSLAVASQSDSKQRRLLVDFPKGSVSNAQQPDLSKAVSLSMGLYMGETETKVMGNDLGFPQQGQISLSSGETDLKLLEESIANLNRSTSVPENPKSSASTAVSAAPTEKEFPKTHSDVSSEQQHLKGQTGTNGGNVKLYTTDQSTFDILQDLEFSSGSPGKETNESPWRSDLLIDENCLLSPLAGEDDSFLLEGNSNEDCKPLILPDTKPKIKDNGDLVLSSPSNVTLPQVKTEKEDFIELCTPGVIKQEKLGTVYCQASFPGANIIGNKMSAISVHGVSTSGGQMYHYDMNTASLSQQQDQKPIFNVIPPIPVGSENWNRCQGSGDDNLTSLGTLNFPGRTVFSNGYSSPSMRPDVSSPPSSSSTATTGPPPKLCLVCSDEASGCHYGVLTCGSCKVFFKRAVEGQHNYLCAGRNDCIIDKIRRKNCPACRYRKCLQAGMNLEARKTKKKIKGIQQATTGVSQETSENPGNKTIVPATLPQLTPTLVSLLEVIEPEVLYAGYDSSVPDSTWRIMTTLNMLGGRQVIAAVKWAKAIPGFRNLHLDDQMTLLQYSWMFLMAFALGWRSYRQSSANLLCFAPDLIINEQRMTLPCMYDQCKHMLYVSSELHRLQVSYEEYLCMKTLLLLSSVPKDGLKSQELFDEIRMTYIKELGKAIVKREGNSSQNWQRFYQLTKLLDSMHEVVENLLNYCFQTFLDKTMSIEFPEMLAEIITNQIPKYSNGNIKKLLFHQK

Androgen receptor = molecular target: T3, Androgen receptor (Homo sapiens, UniProt P10275); assay: Displacement of [3H]testosterone from AR
T3 sequence (P10275 whole entry): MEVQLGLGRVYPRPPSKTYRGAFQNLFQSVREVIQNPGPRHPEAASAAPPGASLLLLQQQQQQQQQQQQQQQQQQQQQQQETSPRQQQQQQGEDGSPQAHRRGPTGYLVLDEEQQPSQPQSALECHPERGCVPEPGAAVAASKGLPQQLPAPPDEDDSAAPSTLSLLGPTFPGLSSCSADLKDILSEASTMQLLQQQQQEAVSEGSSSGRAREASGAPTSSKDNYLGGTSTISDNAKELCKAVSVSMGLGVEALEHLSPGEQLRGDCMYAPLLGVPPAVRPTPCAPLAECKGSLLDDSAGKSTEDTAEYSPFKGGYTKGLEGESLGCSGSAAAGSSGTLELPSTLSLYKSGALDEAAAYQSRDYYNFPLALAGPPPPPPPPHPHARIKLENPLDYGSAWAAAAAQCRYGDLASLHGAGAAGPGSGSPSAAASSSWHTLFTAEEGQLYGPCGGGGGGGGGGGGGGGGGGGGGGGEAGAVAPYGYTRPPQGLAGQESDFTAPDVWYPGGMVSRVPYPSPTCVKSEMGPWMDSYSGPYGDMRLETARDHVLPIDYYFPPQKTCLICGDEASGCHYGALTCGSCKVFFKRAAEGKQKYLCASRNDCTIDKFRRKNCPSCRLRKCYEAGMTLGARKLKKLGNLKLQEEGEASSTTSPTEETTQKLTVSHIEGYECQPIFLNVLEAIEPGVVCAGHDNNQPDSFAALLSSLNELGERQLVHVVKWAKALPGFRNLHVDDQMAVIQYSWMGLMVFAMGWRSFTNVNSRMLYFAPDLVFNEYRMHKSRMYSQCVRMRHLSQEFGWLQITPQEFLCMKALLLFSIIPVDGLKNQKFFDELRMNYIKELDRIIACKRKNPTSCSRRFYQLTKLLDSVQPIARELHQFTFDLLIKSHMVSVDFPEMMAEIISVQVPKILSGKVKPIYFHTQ

Progesterone receptor = molecular target: T4, Progesterone receptor (Homo sapiens, UniProt P06401); assay: Displacement of [3H]progesterone from PR
T4 sequence (P06401 whole entry): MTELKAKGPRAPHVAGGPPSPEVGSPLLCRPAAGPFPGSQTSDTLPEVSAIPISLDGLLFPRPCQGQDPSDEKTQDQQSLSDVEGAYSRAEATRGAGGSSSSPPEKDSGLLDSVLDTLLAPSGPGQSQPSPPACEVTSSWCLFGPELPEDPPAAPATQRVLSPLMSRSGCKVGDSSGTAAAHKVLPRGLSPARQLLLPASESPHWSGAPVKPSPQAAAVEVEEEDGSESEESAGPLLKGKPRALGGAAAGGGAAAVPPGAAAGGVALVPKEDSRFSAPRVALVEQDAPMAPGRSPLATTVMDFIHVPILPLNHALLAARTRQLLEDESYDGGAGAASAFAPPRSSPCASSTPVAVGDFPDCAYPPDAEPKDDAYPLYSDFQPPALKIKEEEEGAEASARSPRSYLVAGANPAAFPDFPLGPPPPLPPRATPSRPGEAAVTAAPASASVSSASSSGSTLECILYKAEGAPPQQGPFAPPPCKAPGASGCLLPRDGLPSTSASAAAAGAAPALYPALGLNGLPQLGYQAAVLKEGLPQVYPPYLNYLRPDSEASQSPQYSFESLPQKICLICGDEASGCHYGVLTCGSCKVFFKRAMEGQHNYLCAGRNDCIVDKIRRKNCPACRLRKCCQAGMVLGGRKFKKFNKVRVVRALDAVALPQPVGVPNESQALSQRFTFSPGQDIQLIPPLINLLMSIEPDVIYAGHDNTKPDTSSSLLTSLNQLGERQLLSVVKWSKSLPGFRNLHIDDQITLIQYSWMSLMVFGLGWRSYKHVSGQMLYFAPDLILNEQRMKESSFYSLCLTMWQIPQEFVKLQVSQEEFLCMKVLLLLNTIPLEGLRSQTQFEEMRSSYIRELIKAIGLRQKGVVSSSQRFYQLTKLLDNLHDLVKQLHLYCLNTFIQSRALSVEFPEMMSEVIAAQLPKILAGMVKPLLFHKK

[2] = molecular target: T1, Mineralocorticoid receptor
Description: Antagonist activity at human MR transfected in human COS1 cells after 1 day by luciferase reporter gene assay

[3] = Clearance in rat liver microsomes at 1 umol/L preincubated for 5 mins measured after 60 mins by UV analysis; assay type: ADME, Microsome
[4] = Bioavailability in Sprague-Dawley rat at 3 mg/kg, iv and 10 mg/kg, po; assay type: ADME, organism-based; settings: in vivo

Row | pIC50 [1] | pIC50 (Glucocorticoid receptor) | pIC50 (Androgen receptor) | pIC50 (Progesterone receptor) | pIC50 [2] | microsomal CLint at 1 µM [3] [µL/min/mg] | bioavailability [4] [%] | Structure (SMILES)
1 | 7.44 | 5.46 | 7.02 | 6.46 |  |  |  | O=C1COc2ccc(C3=Nn4ccnc4SC3c3ccccc3)cc2N1 (configuration not stated)
2 | 5.28 | < 5.00 | < 5.00 | < 5.00 |  |  |  | Cc1cc(-c2ccc3c(c2)NC(=O)CO3)n(-c2ccccc2)n1
3 | < 5.00 |  |  |  |  |  |  | Cc1nc(-c2ccc3c(c2)NC(=O)CO3)c(-c2ccccc2)s1
4 | < 5.00 |  |  |  |  |  |  | CC1(c2ccccc2)Sc2nncn2N=C1c1ccc2c(c1)NC(=O)CO2 (configuration not stated)
5 | 6.22 | 5.26 | 5.23 | < 5.00 |  |  |  | O=C1COc2ccc(C3=Nn4cnnc4SC3c3ccccc3F)cc2N1 (configuration not stated)
6 | 5.89 |  |  |  |  |  |  | O=C1COc2ccc(C3=Nn4cnnc4SC3Cc3ccccc3)cc2N1 (configuration not stated)
7 | 6.57 | < 5.00 | < 5.00 | < 5.00 |  | 60 |  | O=C1COc2ccc(C3=Nn4cnnc4SC3c3ccc(F)cc3)cc2N1 (configuration not stated)
8 | 7.16 | 6.02 | 5.92 | 5.85 |  |  |  | O=C1COc2ccc(C3=Nc4ccccc4SC3c3ccccc3)cc2N1 (configuration not stated)
9 |  | 5.25 | 5.44 | < 5.00 |  |  |  | O=C1COc2ccc(C3=Nn4cnnc4SC3c3ccccc3)cc2N1 (configuration not stated)
10 | 6.51 | < 5.00 | 5.33 | < 5.00 |  |  |  | O=C1COc2ccc(C3=Nn4cnnc4SC3c3cccc(F)c3)cc2N1 (configuration not stated)

Further lines, the compound ahead of its results:

Row | Structure (SMILES) | pIC50 [1] | pIC50 (Glucocorticoid receptor) | pIC50 (Androgen receptor) | pIC50 (Progesterone receptor) | pIC50 [2] | microsomal CLint at 1 µM [3] [µL/min/mg] | bioavailability [4] [%]
11 | CCCC1Sc2nncn2N=C1c1ccc2c(c1)NC(=O)CO2 (configuration not stated) | 5.39 |  |  |  |  |  | 
12 | O=C1COc2ccc(-c3cc(C(F)(F)C(F)(F)F)nn3-c3ccc(F)cc3)cc2N1 | 6.24 |  |  |  |  |  | 
13 | CC(C)c1cc(-c2ccc3c(c2)NC(=O)CO3)n(-c2ccc(F)cc2)n1 | < 5.00 |  |  |  |  |  | 
14 | Cc1cc(F)ccc1-n1nc(C(F)(F)F)cc1-c1cc(Cl)c2c(c1)NC(=O)CO2 | 7.92 | 6.70 | 5.35 | 6.03 | 7.15 |  | 
15 | O=C1COc2ccc(-c3cc(C(F)(F)F)nn3-c3ccccc3F)cc2N1 | 6.36 |  |  |  |  |  | 
16 | Cc1ccccc1-n1nc(C(F)(F)F)cc1-c1ccc2c(c1)NC(=O)CO2 | 7.10 | 5.60 | < 5.00 | 5.31 | 6.82 |  | 
17 | O=C1COc2ccc(-c3c(C(F)(F)F)cnn3-c3ccc(F)cc3)cc2N1 | 5.57 |  |  |  |  |  | 
18 | Cc1nc(-c2ccc3c(c2)NC(=O)CO3)c(-c2ccccc2)[nH]1 | < 5.00 |  |  |  |  |  | 
19 | O=C1COc2ccc(-c3cc(C(F)(F)F)nn3-c3ccc(Cl)cc3)cc2N1 | 6.49 |  |  |  |  |  | 
20 | O=C1COc2ccc(-c3cc(C(F)(F)F)nn3-c3ccccc3Cl)cc2N1 | 6.37 |  |  |  |  |  | 
21 | Cc1ccc(-n2nc(C(F)(F)F)cc2-c2ccc3c(c2)NC(=O)CO3)cc1 | 6.23 |  |  |  |  |  | 
22 | N#Cc1cc(-c2ccc3c(c2)NC(=O)CO3)n(-c2ccc(F)cc2)n1 | 6.04 |  |  |  |  |  | 
23 | O=C1COc2ccc(-c3cc(CO)nn3-c3ccc(F)cc3)cc2N1 | 5.17 |  |  |  |  |  | 
24 | Cc1cc(-c2ccc3c(c2)NC(=O)CO3)n(-c2ccc(F)cc2)n1 | 5.96 | 5.16 | < 5.00 | < 5.00 |  | 164 | 
25 | CCc1ccccc1-n1nc(C(F)(F)F)cc1-c1ccc2c(c1)NC(=O)CO2 | 6.15 |  |  |  |  |  | 
26 | Cc1cc(F)ccc1-n1nc(C(F)(F)F)cc1-c1cc(F)c2c(c1)NC(=O)CO2 | 7.12 | 5.77 | < 5.00 | 5.74 | 7.07 |  | 
27 | O=C1COc2ccc(-c3cc(C(F)(F)F)nn3-c3ccc(F)cc3)cc2N1 | 6.59 |  |  |  |  | 24 | 28
28 | O=C1COc2ccc(-c3cc(C(F)(F)F)nn3-c3cccc(F)c3)cc2N1 | 5.96 |  |  |  |  |  | 
29 | Cc1cc(F)ccc1-n1nc(C(F)(F)F)cc1-c1cc(C)c2c(c1)NC(=O)CO2 | 7.68 | 6.33 | < 5.00 | 5.62 | 7.82 |  | 
30 | O=C1COc2ccc(C3=Nn4cnnc4SC3)cc2N1 | 5.70 | < 5.00 | < 5.00 | 5.80 |  |  | 
31 | CCc1cc(-c2ccc3c(c2)NC(=O)CO3)n(-c2ccc(F)cc2)n1 | 6.02 |  |  |  |  |  | 
